pIC50: −log10 of the molar value.

Series [1] addresses T1, Human immunodeficiency virus type 1 protease (Human immunodeficiency virus 1, UniProt Q72874). As to the kind of experiment: Inhibitory concentration against wild-type HIV-1 protease.
Another series has as its system MT4. Kind of series: Concentration required to inhibit the spread of viral infection in MT-4 human T-lymphoid cells infected by the NL4-3 virus. It is filed as functional. To be noted: read-out: CIC95.
The subject of series [2] is Human immunodeficiency virus 1. As to the kind of experiment: In vitro inhibition of spread of viral infection using 4X mutant virus. The note with it: read-out: CIC95. It counts as functional.
Series [3] in a line: Maximum concentration in dogs administered perorally (5 mg/kg) and intravenously (2 mg/kg). To be noted: dog, in vivo, po. It is filed as ADME, organism-based, Canis lupus familiaris.
Series [4] relates to Human immunodeficiency virus 1. As to the kind of experiment: Potency against PI-resistant virus HIV 4X. It counts as functional. The note with it: read-out: CIC95.
The subject of series [5] is Human immunodeficiency virus 1. Kind of series: Potency against PI-resistant virus HIV NL-4. It is filed as functional. The note with it: read-out: CIC95.
Series [6] is described as follows: Intrinsic clearance in human liver microsomes. It counts as ADME, Microsome. For orientation: Microsomes from liver hold many membrane-bound enzymes, among them those of drug oxidation.
A short description of series [7]: Plasma clearance in dogs administered perorally (5 mg/kg) and intravenously (2 mg/kg). It counts as ADME, organism-based, Canis lupus familiaris. To be noted: dog, iv, read-out: Clp.
The test system of series [8] is Human immunodeficiency virus 1. As to the kind of experiment: Potency against PI-resistant viral isolate construct HIV Q-60C. It counts as functional. The note with it: read-out: CIC95.
For the next series, the target named is Cytochrome P450 2D6 (Homo sapiens, UniProt P10635). Kind of series: Inhibition of cytochrome P450 2D6. It counts as ADME.
Chain of Cytochrome P450 2D6 (P10635 whole entry): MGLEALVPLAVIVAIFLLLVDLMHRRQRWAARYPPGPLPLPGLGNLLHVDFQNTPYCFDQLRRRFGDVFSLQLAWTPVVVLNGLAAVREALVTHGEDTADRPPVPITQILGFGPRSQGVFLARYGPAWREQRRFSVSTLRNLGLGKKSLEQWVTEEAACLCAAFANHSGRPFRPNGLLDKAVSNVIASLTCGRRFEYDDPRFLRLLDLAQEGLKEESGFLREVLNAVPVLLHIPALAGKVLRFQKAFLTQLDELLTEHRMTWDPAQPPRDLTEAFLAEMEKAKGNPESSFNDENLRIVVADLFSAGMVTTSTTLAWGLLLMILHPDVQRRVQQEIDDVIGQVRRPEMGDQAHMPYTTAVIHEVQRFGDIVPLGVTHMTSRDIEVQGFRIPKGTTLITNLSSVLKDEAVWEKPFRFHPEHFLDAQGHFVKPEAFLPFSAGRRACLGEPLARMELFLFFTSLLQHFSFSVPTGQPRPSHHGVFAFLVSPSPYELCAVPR
Series [9] concerns Human immunodeficiency virus 1. As to the kind of experiment: Potency against PI-resistant viral isolate construct HIV V-18C. The note with it: read-out: CIC95. It counts as functional.
The subject of series [10] is Human immunodeficiency virus 1. Kind of series: Potency against PI-resistant viral isolate construct HIV K-60C. It is filed as functional. To be noted: read-out: CIC95.
Another series deals with Cytochrome P450 3A4 (Homo sapiens, UniProt P08684). Kind of series: Inhibition of cytochrome P450 3A4. It counts as ADME.
Chain of Cytochrome P450 3A4 (P08684 whole entry): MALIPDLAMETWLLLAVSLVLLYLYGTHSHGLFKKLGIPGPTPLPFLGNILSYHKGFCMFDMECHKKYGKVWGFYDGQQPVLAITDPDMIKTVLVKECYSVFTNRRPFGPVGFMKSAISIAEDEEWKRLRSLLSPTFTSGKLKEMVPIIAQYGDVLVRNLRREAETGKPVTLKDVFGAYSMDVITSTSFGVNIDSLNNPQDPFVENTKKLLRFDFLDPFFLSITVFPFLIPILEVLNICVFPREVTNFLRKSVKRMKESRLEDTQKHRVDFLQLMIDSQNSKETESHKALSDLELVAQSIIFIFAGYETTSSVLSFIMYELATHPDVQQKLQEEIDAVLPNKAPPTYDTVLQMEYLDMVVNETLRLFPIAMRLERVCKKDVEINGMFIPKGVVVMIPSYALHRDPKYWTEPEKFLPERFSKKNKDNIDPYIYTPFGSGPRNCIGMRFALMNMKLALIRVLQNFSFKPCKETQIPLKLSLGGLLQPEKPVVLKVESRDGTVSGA
The target in series [11] is T1, Human immunodeficiency virus type 1 protease. Kind of series: Inhibitory concentration required to inhibit cleavage of a substrate by thewild-type HIV-1 protease enzyme.
Series [12] can be described thus: Area under curve in dogs administered perorally (5 mg/kg) and intravenously (2 mg/kg). It is filed as ADME, organism-based, Canis lupus familiaris. To be noted: dog, in vivo.
Series [13] in a line: Bioavailability in dog (dose 5 mg/kg p.o. and 2 mg/kg i.v.). It is filed as ADME, organism-based, Canis lupus familiaris. The note with it: in vivo, po.
Series [14] can be described thus: Half life in dogs administered perorally (5 mg/kg) and intravenously (2 mg/kg). It is filed as ADME, organism-based, Canis lupus familiaris. To be noted: dog, in vivo.

What is called pIC50 is the IC50 on a negative log10 scale, so that one unit is a factor of ten. Higher therefore signals a low IC50. Turning to `CC(C)CNC(=O)[C@@H]1CN(C(C)(C)c2cc3cnccc3o2)CCN1C[C@@H](O)C[C@@H](Cc1ccccc1)C(=O)N[C@H]1c2ccccc2OC[C@H]1O`, in [1], the pIC50 was 9.40. Moreover, the results for the IC95 (in the series with MT4; in [2]) were 15 nM and 125 nM, respectively.
On to `CC(C)(C)CNC(=O)[C@@H]1CN(C(C)(C)c2cc3cnccc3o2)CCN1C[C@@H](O)C[C@@H](Cc1ccccc1)C(=O)N[C@H]1c2ccccc2OC[C@H]1O`, for which, in [1], the pIC50 was 8.94. For the same molecule, the IC95 in the series with MT4 was found to be 31 nM; in series [2], 500 nM.
`CCNC(=O)[C@@H]1CN(C(C)(C)c2cc3cnccc3o2)CCN1C[C@@H](O)C[C@@H](Cc1ccccc1)C(=O)N[C@H]1c2ccccc2OC[C@H]1O`: in series [1], the pIC50 was 9.21. The IC95 was 31 nM in the series with MT4 and 62 nM in series [2].
As to `CC(C)(c1cc2cnccc2o1)N1CCN(C[C@@H](O)C[C@@H](Cc2ccccc2)C(=O)N[C@H]2c3ccccc3OC[C@H]2O)[C@H](C(=O)NCC(F)(F)C(F)(F)F)C1`, the pIC50 in series [1] is 9.85. The values for the IC95 (with MT4; in series [2]) were at most 8 nM and 62 nM, respectively.
What is called Cmax is the highest concentration seen after dosing. A word on the CLint scaled: it is a measure of how fast metabolising enzymes remove a compound, apart from limits set by blood flow. Lower therefore signals slow turnover. With `CC(C)(C)NC(=O)[C@@H]1CN(C(C)(C)c2cc3cnccc3o2)CCN1C[C@@H](O)C[C@@H](Cc1ccccc1)C(=O)N[C@H]1c2ccccc2OC[C@H]1O`, in series [3], the peak level (Cmax) was 8.8 µM. Further, the IC95 in series [4] is 16 nM; in [5], 9.2 nM; in series [8] it was 125 nM; in the series on MT4 it was at most 8 nM; in [2] it was 31 nM; in series [9] it was 125 nM. For the same molecule, the IC95 in series [10] amounted to 500 nM. For the same molecule, in series [6], the CLint scaled was 34 mL/min/kg. For the same molecule, the clearance in series [7] worked out at 14.2 mL/min/kg. Besides, the pIC50 is 10.10 in series [1], 5.61 against Cytochrome P450 2D6 and 6.51 on Cytochrome P450 3A4.
As to `CC(C)(c1cc2cnccc2o1)N1CCN(C[C@@H](O)C[C@@H](Cc2ccccc2)C(=O)N[C@H]2c3ccccc3OC[C@H]2O)[C@H](C(=O)NCc2ccccc2)C1`, in [1], the pIC50 is 8.66. For the same molecule, the IC95 worked out at 125 nM in the series on MT4 and 250 nM in [2].
Turning to `CC(C)(c1cc2cnccc2o1)N1CCN(C[C@@H](O)C[C@@H](Cc2ccccc2)C(=O)N[C@H]2c3ccccc3OC[C@H]2O)[C@H](C(=O)NCC2CC2)C1`, the pIC50 in series [1] was 9.30. Also, the IC95 was found to be 46 nM in the series on MT4 and 125 nM in [2].
Consider `CC(C)(C)NC(=O)[C@@H]1CN(Cc2cccnc2)CCN1C[C@@H](O)C[C@@H](Cc1ccccc1)C(=O)N[C@H]1c2ccccc2C[C@H]1O`, for which the IC95 in [4] was 400 nM; in series [5] it was 50 nM; in series [8] it was above 1000 nM; in series [9] it was above 1000 nM; in series [10], above 1000 nM.
With `CC(C)(c1cc2cnccc2o1)N1CCN(C[C@@H](O)C[C@@H](Cc2ccccc2)C(=O)N[C@H]2c3ccccc3OC[C@H]2O)[C@H](C(=O)NCc2cccs2)C1`, the pIC50 in series [11] was 9.19. Moreover, the figures for the IC95 (in the series on MT4; in [2]) were 94 nM and 125 nM, respectively.
One may read the AUC as the area under the concentration-time curve, a measure of exposure. Low readings indicate low exposure, high ones high exposure. Broadly, the bioavailability is the share of a dose that reaches the circulation, judged against a reference dose that is usually intravenous. Higher therefore signals good availability. As a reminder, the half-life is the time needed for the level to fall by half in the phase considered. For `CC(C)(c1cc2cnccc2o1)N1CCN(C[C@@H](O)C[C@@H](Cc2ccccc2)C(=O)N[C@H]2c3ccccc3OC[C@H]2O)[C@H](C(=O)NCC(F)(F)F)C1`, in series [12], the AUC was 18.8 µM·h. In [13], this molecule yielded a bioavailability of 65%. In series [3], this molecule yielded a Cmax of 17 µM. Further, the IC95 in series [4] was at most 8 nM; in series [5], at most 8 nM; in [8], 62 nM; in the series on MT4 it was at most 8 nM; in series [2], at most 8 nM; in series [9] it was 62 nM. The IC95 in [10] was 250 nM. In series [14], the half-life was found to be 52 min. This molecule also showed a CLint scaled in [6] of 22 mL/min/kg. The clearance in [7] came to 4.01 mL/min/kg. For the same molecule, the values for the pIC50 (in series [1]; against Cytochrome P450 2D6; against Cytochrome P450 3A4) were 10.15, 6.28 and 7.52, respectively.
For `O=C(N[C@H]1c2ccccc2C[C@H]1O)[C@H](Cc1ccccc1)C[C@H](O)CN1CCN(Cc2cccnc2)C[C@H]1C(=O)NCC(F)(F)F`, the IC95 in [4] was 125 nM; in series [5], 62 nM; in series [8], 62 nM; in series [9] it was 500 nM; in series [10], above 1000 nM.
Molecule `CC(C)(c1cc2cnccc2o1)N1CCN(C[C@@H](O)C[C@@H](Cc2ccccc2)C(=O)N[C@H]2c3ccccc3OC[C@H]2O)[C@H](C(=O)NC2CC2)C1` had a negative-log IC50 (pIC50) in series [1] of 9.22. The IC95 with MT4 came out at 62 nM; in [2] it was 250 nM.
`CC(C)(c1cc2cnccc2o1)N1CCN(C[C@@H](O)C[C@@H](Cc2ccccc2)C(=O)N[C@H]2c3ccccc3OC[C@H]2O)[C@H](C(=O)NCCC(F)(F)F)C1`: the negative logarithm of the IC50 (pIC50) in series [1] is 8.80. The values for the IC95 (in the series on MT4; in series [2]) were 62 nM and 500 nM, respectively.
`CC(C)(c1cc2cnccc2o1)N1CCN(C[C@@H](O)C[C@@H](Cc2ccccc2)C(=O)N[C@H]2c3ccccc3OC[C@H]2O)[C@H](C(=O)NC2CCCC2)C1` gave a pIC50 in series [1] of 9.43. Also, the IC95 was at most 8 nM in the series on MT4 and 31 nM in [2].
For the molecule `CC(C)(c1cc2cnccc2o1)N1CCN(C[C@@H](O)C[C@@H](Cc2ccccc2)C(=O)N[C@H]2c3ccccc3OC[C@H]2O)[C@H](C(=O)Nc2ccccc2)C1`, the pIC50 in [1] was 7.86. The IC95 in the series on MT4 is 250 nM; in series [2], above 1000 nM.
